Source: article PMC11581978, “Paenilamicins are context-specific translocation inhibitors of protein synthesis” (Nature Chemical Biology, 2024)

Assays:
[1] = test system: E. coli ribosomes translating MLIFstop-mRNA; assay: Toeprinting assay on MLIFstop-mRNA; assay type: biochemical; details: 0.5-100 µM, toeprinting in duplicate, 30 min at 37 °C
From the text: To investigate how paenilamicins inhibit translation, we generated PamB2-stalled ribosome complexes (PamB2-SRC) for single-particle cryo-EM analysis. Rather than forming complexes on vacant ribosomes, or with predefined functional states, we instead aimed to use more physiological complexes where translating ribosomes become stalled by PamB2. To achieve this, we performed in vitro translation reactions with E. coli ribosomes using the Met-Leu-Ile-Phe-stop-mRNA (MLIFstop-mRNA), a model template that we had previously used to successfully determine structures of drosocin-stalled ribosomal complexes. Toeprinting was used to monitor the position of ribosomes on the MLIFstop-mRNA in the presence of increasing concentrations of synthetic PamB2 (Extended Data Fig. 2). […] (Extended Data Fig. 2). […] (Extended Data Fig. 2).
Toeprinting reactions for Fig. 4b and Extended Data Fig. 2 were performed as described previously. Briefly, reactions were performed with 6 μl of PURExpress in vitro protein synthesis system (New England Biolabs). The reactions were carried out with different primers and templates (Supplementary Tables 2 and 3). The reactions contained 340 ng of the respective mRNA template and were supplemented with the different compounds as specified. The translation reactions were incubated for 30 min at 37 °C. […]

[2] = test system: Escherichia coli in vitro translation; details: E. coli in vitro translation, cited from earlier work
From the text: The accordance of structural features of paenilamicins with the translation inhibitor edeine (Extended Data Fig. 1c) led to the hypothesis that paenilamicins may also exert their antimicrobial activity by binding to the ribosome and inhibiting protein synthesis. […] The best understood context-specific translation inhibitors are those that target the large subunit, where their inhibitory action is influenced by the sequence of the nascent polypeptide chain being synthesized, for example, macrolides and ketolides[30]–[32] ...

[3] = test system: EF-G-dependent translocation on the ribosome; assay: Translocation assay (toeprinting, MFKAFK template); assay type: biochemical; details: EF-G present; tRNAfMet in P-site, N-AcPhe-tRNAPhe in A-site; in duplicate
Experimental: Translocation assays were performed as previously described[22] using the MFKAFK template[45] (Supplementary Table 2). Reactions were prepared by incubating tight-coupled ribosomes (0.7 µM) with mRNA (0.5 µM) and tRNAi^Met (1 µM) for 20 min at 37 °C in the Pure System Buffer (5 mM potassium phosphate (pH 7.3), 9 mM Mg(OAc)2, 95 mM potassium glutamate, 5 mM NH4Cl, 0.5 mM CaCl2, 1 mM spermidine, 8 mM putrescine and 1 mM dithiothreitol) and for additional 10 min at 37 °C with 2 μM of N-acetyl-Phe-tRNA^Phe. At the time of N-acetyl-Phe-tRNA^Phe addition, the reactions were supplemented with PamB2 or negamycin as specified. The translocation reaction was initiated by addition of 1 µl of EF-G–GTP mixture (1.2 µM and 3.2 mM). After 5 min of incubation at 30 °C, 2 µl of reverse transcriptase and/or dNTPs mixture was added. The reactions were stopped after another 5 min at 30 °C by addition of 200 µl of the stop buffer and subsequent phenol extraction. The obtained complementary DNA was precipitated in ethanol for subsequent gel electrophoresis.

[4] = test system: ribosomes translating ErmBL mRNA; assay: Toeprinting on ErmBL mRNA templates (Figs. 4a and 5c); assay type: biochemical, E. coli; details: 100 µM
Experimental: Toeprinting reactions for Figs. 4a and 5c were performed as described previously. Briefly, reactions were performed with 5 μl of PURExpress in vitro protein synthesis system. The reactions contained 0.1 pmol of the respective DNA template (Supplementary Table 2) and were supplemented with retapamulin, erythromycin, mupirocin or PamB2 as specified. The transcription–translation reactions were incubated 20 min at 37 °C. Subsequently, reverse transcription was performed for 10 min at 37 °C using AMV RT and the radiolabeled NV*1-primer. Reactions were stopped by the addition of 1 µl of 10 M NaOH and then neutralized with 0.8 µl of concentrated HCl. Subsequently, 200 µl of the stop buffer (0.3 M sodium acetate (pH 5.5), 5 mM EDTA and 0.5% SDS) was added and phenol extraction was performed. The obtained complementary DNA was precipitated in ethanol for subsequent gel electrophoresis.

Substance: paenilamicin B2 [PamB2]
- ribosome stalling on MLIFstop-mRNA [1]: gradual loss of ribosomes at the AUG codon and an increase in ribosomes stalled one codon further with the UUG (Leu) codon in the P-site
- inhibition of in vitro translation / protein synthesis (in words) [2]: potent inhibitor of protein synthesis
- IC50 ([2]; read-out: half-inhibitory concentration (IC50)): 400 nM
- EF-G dependent translocation (toeprint shift) [3]: little to no shift in the toeprint band
- inhibition when Phe-tRNA (ms2i6A37) decodes UUC in the A-site ([4]; ErmBL mRNA): no inhibition
- inhibition when tRNALeu (ms2i6A37) decodes UUG in the A-site ([4]; ErmBL mRNA): not inhibited
- translation through stretches of UUG codons ([4]; ErmBL mRNA with 1–5 UUG repeats): ribosomes can translate through stretches of up to five UUG codons unhindered
- ribosome stalling at serine codon UCA ([4]; ErmBL-(UUG)4 mRNA, seventh codon UCA, tRNASer with ms2i6A37): only weak stalling
- ribosome stalling at serine codon UCC ([4]; ErmBL-(UUG)4 mRNA, seventh codon UCC, tRNASer lacking A37 modification): strong stalling
- ribosome stalling at serine codon UCG ([4]; ErmBL-(UUG)4 mRNA, seventh codon UCG, tRNASer with ms2i6A37): only weak stalling
- ribosome stalling at serine codon UCU ([4]; ErmBL-(UUG)4 mRNA, seventh codon UCU, tRNASer lacking A37 modification): strong stalling
- ribosome stalling at subsequent sites, ErmBL mRNA ([4]; fourth UUC (Phe) in the P-site): a subset of ribosomes also become stalled
- accumulation of ribosomes on AUG start codon, wildtype (1×UUG) ErmBL mRNA ([4]; mupirocin present, in duplicate): did not lead to a strong accumulation of ribosomes on the AUG start codon
- ribosome stalling, wildtype (1×UUG) ErmBL mRNA ([4]; mupirocin present, second codon UUG in the P-site): ribosomes became stalled only once the second ermBL codon (UUG) moved into the P-site
- ribosome stalling at subsequent sites, ErmBL mRNA ([4]; third GUA codon in the P-site): not the third GUA codon in the P-site
